Measurements from article PMC11968843, “Sulphostin-inspired N-phosphonopiperidones as selective covalent DPP8 and DPP9 inhibitors” (Nature Communications, 2025).
Like-named read-outs stand apart in the source and are kept apart here.

Key:
Type in all cases: biochemical
[1] = biological target: T1, DPP8 (Homo sapiens, UniProt Q6V1X1); assay: Time-dependent DPP8 inhibition kinetics (kobs, KI, kinact, kapp); details: for kobs: n=3
T1 construct: purchased Proteros Biostructures GmbH, Germany
Procedure: (§1) To calculate the reaction rate of covalent bond formation between DPP proteins and inhibitor, kinact, KI and kapp was determined as previously described[30],[51]. Therefore, 250 µM GP-AMC was added simultaneously with a serial dilution of the inhibitor to 10 nM enzyme. Enzyme activity was measured for a maximum of 120 min at 30 °C, and fluorescence intensities were then plotted against time. Data was fitted to the following equation: Y=(vi/kobs)*(1−exp(−kobs*X)) using Graph-Pad Prism v10.2.3. The obtained pseudo-first-order rate constant was used to determine the maximum enzyme inhibition rate (kinact) and binding affinity (KI) by fitting the plot of kobs against inhibitor concentration to the following equation: Y=kinact/1+(KI/[I]) . The efficiency of covalent bond formation (kapp) was calculated by the ratio of kinact/KI. All measurements were performed in triplicates and error bars represent standard errors of the fit.

[2] = biological target: T1, DPP8; assay: biochemical
Procedure: (§2) Enzyme activity of DPP4, DPP8, DPP9 (Proteros Biostructures GmbH, Germany) and PREP (Sigma Aldrich, USA) was determined by measuring the initial velocity of AMC release from the fluorogenic substrate GP-AMC (Sigma Aldrich, USA) using a Tecan Spark® 10 M multimode microplate reader (Tecan Group Ltd., Switzerland) in activity buffer (20 mM HEPES/KOH pH 7.3, 110 mM potassium acetate, 2 mM Mg acetate, 0.5 mM EGTA, 0.02% Tween 20, supplemented with 1 mM DTT) and a final volume of 20 μL for maximal 60 min at 30 °C. Prior to activity measurement, 10 nM enzyme was incubated for 45 min at 30 °C and gentle shaking with the inhibitor compounds in concentrations ranging from 0 to 100 μM. The compounds were dissolved in DMSO and diluted in activity buffer (final DMSO concentration: 1%). […] IC50 values were calculated using Graph-Pad Prism v10.2.3 using the equation: [Inhibitor] vs. response—Variable slope (four parameters). All measurements were performed in triplicates and error bars represent standard errors of the fit.

[3] = biological target: T2, DPP4 (Homo sapiens, UniProt P27487); assay: biochemical
T2 construct: purchased Proteros Biostructures GmbH, Germany
Procedure: as §2

[4] = biological target: T3, DPP9 (Homo sapiens, UniProt Q86TI2); assay: Time-dependent DPP9 inhibition kinetics (kobs, KI, kinact, kapp); parameters: purchased Proteros Biostructures GmbH, Germany; details: DPP9, n=3
Procedure: as §1

[5] = biological target: T2, DPP4; details: DPP4, n=3
Procedure: as §1, with “Therefore, 250 µM GP-AMC was added simultaneously with a serial dilution of the inhibitor to 10 nM enzyme.” left out

[6] = biological target: T3, DPP9; assay: biochemical; parameters: purchased Proteros Biostructures GmbH, Germany
Procedure: as §2

T2 sequence (P27487 whole entry): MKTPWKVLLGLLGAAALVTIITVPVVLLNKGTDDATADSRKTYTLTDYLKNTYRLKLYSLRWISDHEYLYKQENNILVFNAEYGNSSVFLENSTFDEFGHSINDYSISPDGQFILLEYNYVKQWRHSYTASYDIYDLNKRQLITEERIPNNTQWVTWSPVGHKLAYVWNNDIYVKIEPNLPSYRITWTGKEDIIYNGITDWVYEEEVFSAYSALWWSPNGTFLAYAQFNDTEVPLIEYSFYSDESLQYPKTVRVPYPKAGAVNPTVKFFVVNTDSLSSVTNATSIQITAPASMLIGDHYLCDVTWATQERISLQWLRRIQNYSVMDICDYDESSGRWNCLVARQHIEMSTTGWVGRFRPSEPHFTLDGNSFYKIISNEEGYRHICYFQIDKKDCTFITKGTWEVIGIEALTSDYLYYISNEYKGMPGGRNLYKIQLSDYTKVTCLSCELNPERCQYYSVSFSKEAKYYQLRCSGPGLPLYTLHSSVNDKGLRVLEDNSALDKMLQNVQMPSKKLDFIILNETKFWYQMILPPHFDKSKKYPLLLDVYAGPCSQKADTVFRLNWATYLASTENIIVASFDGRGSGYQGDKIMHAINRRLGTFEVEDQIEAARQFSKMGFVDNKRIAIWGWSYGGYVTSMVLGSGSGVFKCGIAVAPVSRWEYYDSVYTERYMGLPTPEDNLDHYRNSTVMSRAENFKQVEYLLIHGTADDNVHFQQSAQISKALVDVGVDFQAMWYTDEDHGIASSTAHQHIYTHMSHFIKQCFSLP
T1 sequence (Q6V1X1 whole entry): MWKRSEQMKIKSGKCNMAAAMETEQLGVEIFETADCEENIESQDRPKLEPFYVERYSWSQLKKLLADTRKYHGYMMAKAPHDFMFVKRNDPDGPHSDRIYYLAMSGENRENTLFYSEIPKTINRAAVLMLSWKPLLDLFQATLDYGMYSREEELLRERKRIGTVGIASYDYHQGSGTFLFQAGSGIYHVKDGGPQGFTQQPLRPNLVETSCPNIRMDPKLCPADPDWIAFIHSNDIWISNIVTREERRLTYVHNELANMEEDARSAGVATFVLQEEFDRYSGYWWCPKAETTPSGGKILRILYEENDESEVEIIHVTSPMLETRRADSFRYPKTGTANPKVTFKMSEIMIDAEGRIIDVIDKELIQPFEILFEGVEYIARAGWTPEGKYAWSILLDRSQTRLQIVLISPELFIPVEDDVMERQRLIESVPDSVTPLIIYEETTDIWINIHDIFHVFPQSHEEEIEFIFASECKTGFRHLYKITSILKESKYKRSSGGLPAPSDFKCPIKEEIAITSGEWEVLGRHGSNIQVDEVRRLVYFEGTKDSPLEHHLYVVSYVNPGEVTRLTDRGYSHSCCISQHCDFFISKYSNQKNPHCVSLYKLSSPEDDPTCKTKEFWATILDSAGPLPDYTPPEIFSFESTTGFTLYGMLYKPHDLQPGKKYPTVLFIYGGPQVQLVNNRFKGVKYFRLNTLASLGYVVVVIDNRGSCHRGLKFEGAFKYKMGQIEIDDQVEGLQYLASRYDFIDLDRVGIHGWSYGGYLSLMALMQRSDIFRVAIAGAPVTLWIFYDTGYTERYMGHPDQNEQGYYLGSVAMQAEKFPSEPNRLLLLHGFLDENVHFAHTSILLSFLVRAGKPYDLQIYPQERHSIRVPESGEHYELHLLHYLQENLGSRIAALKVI
T3 sequence (Q86TI2 whole entry): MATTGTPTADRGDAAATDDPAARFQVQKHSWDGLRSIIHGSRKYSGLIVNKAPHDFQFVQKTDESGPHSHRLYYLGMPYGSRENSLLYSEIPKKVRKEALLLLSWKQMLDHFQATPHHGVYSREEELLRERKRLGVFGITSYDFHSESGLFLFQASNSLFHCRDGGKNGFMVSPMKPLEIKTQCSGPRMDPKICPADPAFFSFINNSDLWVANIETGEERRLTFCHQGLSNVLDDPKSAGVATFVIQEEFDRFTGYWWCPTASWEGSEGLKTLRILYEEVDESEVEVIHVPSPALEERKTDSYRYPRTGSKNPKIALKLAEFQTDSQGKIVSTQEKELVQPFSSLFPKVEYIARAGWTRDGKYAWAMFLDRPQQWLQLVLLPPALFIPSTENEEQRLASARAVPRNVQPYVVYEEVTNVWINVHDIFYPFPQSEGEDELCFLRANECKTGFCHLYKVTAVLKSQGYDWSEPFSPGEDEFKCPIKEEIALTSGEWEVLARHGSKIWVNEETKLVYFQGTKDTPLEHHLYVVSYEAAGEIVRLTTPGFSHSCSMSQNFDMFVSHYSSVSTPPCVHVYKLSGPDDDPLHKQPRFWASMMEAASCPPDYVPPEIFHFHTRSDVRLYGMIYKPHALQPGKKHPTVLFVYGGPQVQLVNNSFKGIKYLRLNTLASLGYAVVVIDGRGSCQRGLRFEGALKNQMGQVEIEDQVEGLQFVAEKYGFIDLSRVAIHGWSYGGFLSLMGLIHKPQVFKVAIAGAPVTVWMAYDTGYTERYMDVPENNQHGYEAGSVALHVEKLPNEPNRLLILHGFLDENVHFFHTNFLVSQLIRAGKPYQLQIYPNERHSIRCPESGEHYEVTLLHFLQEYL

CCCCCCP(=O)(OCC)N1CCC[C@H](N)C1=O (some centres unmarked) [Compound 5]
kapp ([1]; DPP8): 36.00 M⁻¹ s⁻¹ | kinact best fit ([1]; DPP8): 0.0004148 s⁻¹ | kobs ([1]; DPP8, c 1562.5 nM): 9.14e-05 s⁻¹ | kobs ([1]; DPP8, c 6250 nM): 0.000151 s⁻¹ | kobs ([1]; DPP8, c 25000 nM): 0.000235 s⁻¹ | kobs ([1]; DPP8, c 50000 nM): 0.00037 s⁻¹ | kapp DPP8 ([1]; ratio kinact/KI): 36 M⁻¹ s⁻¹ | KI (inactivation) ([1]; read-out: KI DPP8, irreversible inhibition, fit of kobs vs inhibitor concentration): 11.5 µM | KI (inactivation) ([1]; read-out: KI best fit, DPP8): 11.5 µM | KI (inactivation) ([1]; read-out: KI best fit, DPP8, fit of kobs vs inhibitor concentration): 11.5 µM | kinact ([1]; read-out: kinact DPP8, irreversible inhibition, fit of kobs vs inhibitor concentration): 0.00042 ± 7e-05 s⁻¹ | kinact ([1]; read-out: kinact best fit, DPP8): 0.000415 s⁻¹ | IC50 [2]: 13.7 µM | remaining activity at 1.5625 µM ([2]; read-out: DPP8 activity [%], c 1562.5 nM, replicates): 94.2% | remaining activity at 3.125 µM ([2]; read-out: DPP8 activity [%], c 3125 nM, replicates): 84.3% | remaining activity at 6.25 µM ([2]; read-out: DPP8 activity [%], c 6250 nM, replicates): 64.1% | remaining activity at 15.625 µM ([2]; read-out: DPP8 activity [%], c 15625 nM, replicates): 42.1% | remaining activity at 25 µM ([2]; read-out: DPP8 activity [%], c 25000 nM, replicates): 28.4% | remaining activity at 31.25 µM ([2]; read-out: DPP8 activity [%], c 31250 nM, replicates): 19.4% | remaining activity at 50 µM ([2]; read-out: DPP8 activity [%], c 50000 nM, replicates): 13.9% | remaining activity at 62.5 µM ([2]; read-out: DPP8 activity [%], c 62500 nM, replicates): 4.38% | remaining activity at 100 µM ([2]; read-out: DPP8 activity [%], c 100000 nM, replicates): 5.19% | IC50 ([3]; IC50 DPP4, GP-AMC 250 µM, 10 nM enzyme, 45 min pre-incubation at 30 °C): 46.7 µM | remaining activity at 1.5625 µM ([3]; read-out: DPP4 activity [%], c 1562.5 nM, replicates): 101% | remaining activity at 3.125 µM ([3]; read-out: DPP4 activity [%], c 3125 nM, replicates): 103% | remaining activity at 6.25 µM ([3]; read-out: DPP4 activity [%], c 6250 nM, replicates): 105% | remaining activity at 25 µM ([3]; read-out: DPP4 activity [%], c 25000 nM, replicates): 79.6% | remaining activity at 50 µM ([3]; read-out: DPP4 activity [%], c 50000 nM, replicates): 44.3% | remaining activity at 100 µM ([3]; read-out: DPP4 activity [%], c 100000 nM, replicates): 23.3% | kobs ([4]; c 25000 nM): 0.000207 s⁻¹ | kobs ([4]; c 50000 nM): 0.000227 s⁻¹ | kobs ([4]; c 100000 nM): 0.000318 s⁻¹ | kobs ([5]; c 25000 nM): 0.001878 s⁻¹ | kobs ([5]; c 50000 nM): 0.001819 s⁻¹ | kobs ([5]; c 100000 nM): 0.001824 s⁻¹ | IC50 [6]: 42.7 µM | remaining activity at 1.5625 µM ([6]; read-out: DPP9 activity [%], c 1562.5 nM, replicates): 97% | remaining activity at 3.125 µM ([6]; read-out: DPP9 activity [%], c 3125 nM, replicates): 96.9% | remaining activity at 6.25 µM ([6]; read-out: DPP9 activity [%], c 6250 nM, replicates): 89.1% | remaining activity at 15.625 µM ([6]; read-out: DPP9 activity [%], c 15625 nM, replicates): 77.4% | remaining activity at 25 µM ([6]; read-out: DPP9 activity [%], c 25000 nM, replicates): 65.7% | remaining activity at 31.25 µM ([6]; read-out: DPP9 activity [%], c 31250 nM, replicates): 60.7% | remaining activity at 50 µM ([6]; read-out: DPP9 activity [%], c 50000 nM, replicates): 45.5% | remaining activity at 62.5 µM ([6]; read-out: DPP9 activity [%], c 62500 nM, replicates): 38.8% | remaining activity at 100 µM ([6]; read-out: DPP9 activity [%], c 100000 nM, replicates): 22.1% | remaining activity at 250 µM ([6]; read-out: DPP9 activity [%], c 250000 nM, replicates): 5.77% | remaining activity at 500 µM ([6]; read-out: DPP9 activity [%], c 500000 nM, replicates): 1.09%
